Measurements published in US10016427B2, “Hydrochloride salt of((1S,2S,4R)-4-{4-[(1S)-2,3-dihydro-1H-inden-1-ylamino]-7H-pyrrolo[2,3-D]pyrimidin-7-YL}-2-hydroxycyclopentyl) methyl sulfamate” (Millennium Pharmaceuticals, Inc., priority 2009, dated 2018).
Structures can show the parent of a compound that is named as a salt.

What was measured:
[1] = Solubility of Form 1 in water; type: physicochemical
Excerpt: The resulting solution has a pH of about 2.33.

[2] = Solid state storage stability (Peak Area % measured by HPLC); type: physicochemical; settings: for stability on storage: compared with the potassium salt; for Peak Area % 6 weeks / Peak Area % Initial / Peak Area % 15 days: solid state; for Peak Area % Initial: -20° C. freezer
Excerpt: The following table summarizes stability data obtained (Peak Area % measured by HPLC) for solid state ((1S,2S,4R)-4-{4-[(1S)-2,3-dihydro-1H-inden-1-ylamino]-7H-pyrrolo[2,3-d]pyrimidin-7-yl}-2-hydroxycyclopentyl)methyl sulfamate.

| Structure (SMILES) | solubility ([1]; pH 2.33, thermodynamic from solid, in water) [µg/mL] | pH of the resulting solution ([1]; solution resulting from dissolution in water) | stability on storage [2] | Peak Area % 6 weeks ([2]; 5° C. refrigerator) [%] | Peak Area % 6 weeks ([2]; 40° C./75% RH) [%] | Peak Area % 6 weeks ([2]; 60° C./75% RH) [%] | Peak Area % Initial [2] [%] | Peak Area % 15 days ([2]; 5° C. refrigerator) [%] | Peak Area % 15 days ([2]; 40° C./75% RH) [%] | Peak Area % 15 days ([2]; 60° C./75% RH) [%] |
| --- | --- | --- | --- | --- | --- | --- | --- | --- | --- | --- |
| NS(=O)(=O)OC[C@@H]1C[C@@H](n2ccc3c(N[C@H]4CCc5ccccc54)ncnc32)C[C@@H]1O [HCl Salt Form 1, ((1S,2S,4R)-4-{4-[(1S)-2,3-dihydro-1H-inden-1-ylamino]-7H-pyrrolo[2,3-d]pyrimidin-7-yl}-2-hydroxycyclopentyl)methyl sulfamate hydrochloride Form 1] | ~7800 | about 2.33 | increased stability on storage | 99.3 | 98.7 | 91.3 | 99.2 | – | – | – |
| NS(=O)(=O)OC[C@@H]1C[C@@H](n2ccc3c(N[C@H]4CCc5ccccc54)ncnc32)C[C@@H]1O [free base (amorphous), ((1S,2S,4R)-4-{4-[(1S)-2,3-dihydro-1H-inden-1-ylamino]-7H-pyrrolo[2,3-d]pyrimidin-7-yl}-2-hydroxycyclopentyl)methyl sulfamate, reference compound] | – | – | – | – | – | – | 96.0 | 96.4 | 94.5 | 93.2 |
| NS(=O)(=O)OC[C@@H]1C[C@@H](n2ccc3c(N[C@H]4CCc5ccccc54)ncnc32)C[C@@H]1O [HCl Salt Form 2, ((1S,2S,4R)-4-{4-[(1S)-2,3-dihydro-1H-inden-1-ylamino]-7H-pyrrolo[2,3-d]pyrimidin-7-yl}-2-hydroxycyclopentyl)methyl sulfamate hydrochloride Form 2] | – | – | increased stability on storage | – | – | – | 98.3 | 98.2 | 97.8 | 88.6 |
| NS(=O)(=O)OC[C@@H]1C[C@@H](n2ccc3c(N[C@H]4CCc5ccccc54)ncnc32)C[C@@H]1O.[K] [potassium salt (amorphous), potassium salt of ((1S,2S,4R)-4-{4-[(1S)-2,3-dihydro-1H-inden-1-ylamino]-7H-pyrrolo[2,3-d]pyrimidin-7-yl}-2-hydroxycyclopentyl)methyl sulfamate, reference compound] | – | – | – | – | – | – | 96.9 | 97.6 | 88.7 | 38.3 |
